Test results published in patent US9328124B2, “BACE inhibitors” (Eli Lilly and Company, priority 2012, dated 2016).
Counter-ions that a name gives are not always drawn. Like-named read-outs stand apart in the source and are kept apart here.

Tests used:
[1] = biological target: native, endogenous murine BACE1 (Mus musculus (Mouse), UniProt P56818); test: PDAPP primary neuronal assay (Abeta ELISA); assay type: cell-based; settings: primary cortical neurons from PDAPP embryos
Method: For in vitro enzymatic and cellular assays, test compounds are prepared in DMSO to make up a 10 mM stock solution. […] A confirmatory whole cell assay is also run in primary neuronal cultures generated from PDAPP transgenic embryonic mice. […] After 2 days in vitro, culture media is replaced with serum free DMEM/F12 (1:1) containing B27 supplement and 2 μM (final) of Ara-C (Sigma, C1768). At day 5 in vitro, neurons are incubated at 37° C. for 24 h in the presence/absence of inhibitors (diluted in DMSO) at the desired concentration. At the end of the incubation, conditioned media are analyzed for evidence of beta-secretase activity, for example, by analysis of Abeta peptides. […] Both Abeta 1-40 and Abeta 1-42 ELISAs use biotinylated 3D6 as the reporting antibody. The concentration of Abeta released in the conditioned media following the compound treatment corresponds to the activity of BACE1 under such conditions.

[2] = biological target: BACE (the beta-secretase enzyme) (Mus musculus (Mouse), UniProt P56818); test: In vivo inhibition of beta-secretase in PDAPP mice (brain Abeta 1-x); settings: 3 hours, young female PDAPP mice, vs vehicle
Method: Several animal models, including mouse, rat, guinea pig, dog, and monkey, may be used to screen for inhibition of beta-secretase activity in vivo following compound treatment Animals used in this invention were transgenic PDAPP mice as described in Games et al., Nature 373, 523-527 (1995), which have been useful to analyze in vivo inhibition of Abeta production in the presence of inhibitory compounds. Two month old PDAPP mice are administered compound formulated in N-methylpyrolidone (Pharmasolve®) in water. Three hours following the administration of compound, animals are sacrificed, and brains are removed for analysis of Abeta fragments. (See Dovey, et al., Journal of Neurochemistry, 76, 173-181 (2001); and Johnson-Wood, et al., Proc. Natl. Acad. Sci. USA, 94, 1550-1555 (1997)).
For standard in vivo pharmacology studies, animals are dosed with various concentrations of compound and compared to a vehicle-treated control group dosed at the same time. At the end of the test period, animals are sacrificed and brain tissues are analyzed for the presence of Abeta peptides by specific sandwich ELISA assays. “Abeta 1-x peptide” as used herein refers to the sum of Abeta species that begin with residue 1 and end with a C-terminus greater than residue 28. This detects the majority of Abeta species and is often called “total Abeta”.
Significant and dose-responsive reduction of total Abeta after oral administration of the compound of Example 8 is consistent with a mechanism of BACE (the beta-secretase enzyme) inhibition in vivo. […] As such, compounds of the present invention are efficacious inhibitors of BACE.

[3] = biological target: human BACE1(1-460):Fc (Homo sapiens (Human), UniProt P56817); test: BACE1 FRET assay; assay type: biochemical; settings: purified recombinant human BACE1, FRET; Mean ± SEM
Method: For in vitro enzymatic and cellular assays, test compounds are prepared in DMSO to make up a 10 mM stock solution.
This fusion protein of BACE1(1-460) and human Fc, named huBACE1:Fc, is constructed into the pJB02 vector. Human BACE1(1-460):Fc (huBACE1:Fc) is transiently expressed in HEK293 cells. 250 μg cDNA of each construct is mixed with Fugene 6 and added to 1 liter HEK293 cells. Four days after the transfection, conditioned media are harvested for purification. huBACE1:Fc is purified by Protein A chromatography. The enzyme is stored at −80° C. in small aliquots.
Serial dilutions of test compounds are prepared as described above. Compounds are further diluted 20× in KH2PO4 buffer. Ten μL of each dilution is added to each well on row A to H of a corresponding low protein binding black plate containing the reaction mixture (25 μL of 50 mM KH2PO4, pH 4.6, 1 mM TRITON® X-100, 1 mg/mL Bovine Serum Albumin, and 15 μM of FRET substrate) (See Yang, et. al., J. Neurochemistry, 91(6) 1249-59 (2004)). The content is mixed well on a plate shaker for 10 minutes. […] The RFU of the mixture at time 0 is recorded at excitation wavelength 355 nm and emission wavelength 460 nm, after brief mixing on a plate shaker. […] The RFU at the end of incubation is recorded with the same excitation and emission settings used at time 0. […]

[4] = biological target: native endogenous human BACE1 (Homo sapiens (Human), UniProt P56817); test: HEK293Swe whole cell assay (Abeta ELISA); assay type: cell-based; settings: HEK293/APP751sw cells
Method: For in vitro enzymatic and cellular assays, test compounds are prepared in DMSO to make up a 10 mM stock solution. The stock solution is serially diluted in DMSO to obtain a ten-point dilution curve with final compound concentrations ranging from […] to 1 nM in a 96-well round-bottom plate before conducting the in vitro enzymatic and whole cell assays. […]
Cells (HEK293/APP751sw at 3.5×10^4 cells/well, containing 200 μL culture media, DMEM containing 10% FBS) are incubated at 37° C. for 4 to 24 h in the presence/absence of inhibitors (diluted in DMSO) at the desired concentration. At the end of the incubation, conditioned media are analyzed for evidence of beta-secretase activity, for example, by analysis of Abeta peptides. Total Abeta peptides (Abeta 1-x) are measured by a sandwich ELISA, using monoclonal 266 as a capture antibody and biotinylated 3D6 as reporting antibody. Alternatively, Abeta 1-40 and Abeta 1-42 peptides are measured by a sandwich ELISA, using monoclonal 2G3 as a capture antibody for Abeta 1-40, and monoclonal 21F12 as a capture antibody for Abeta 1-42. […]

[5] = Abeta 1-40, read-out: PDAPP Neuron A-beta (1-40) ELISA IC50
[6] = Abeta 1-42, read-out: PDAPP Neuron A-beta (1-42) ELISA IC50

Chain of native, endogenous murine BACE1 (P56818 46-501): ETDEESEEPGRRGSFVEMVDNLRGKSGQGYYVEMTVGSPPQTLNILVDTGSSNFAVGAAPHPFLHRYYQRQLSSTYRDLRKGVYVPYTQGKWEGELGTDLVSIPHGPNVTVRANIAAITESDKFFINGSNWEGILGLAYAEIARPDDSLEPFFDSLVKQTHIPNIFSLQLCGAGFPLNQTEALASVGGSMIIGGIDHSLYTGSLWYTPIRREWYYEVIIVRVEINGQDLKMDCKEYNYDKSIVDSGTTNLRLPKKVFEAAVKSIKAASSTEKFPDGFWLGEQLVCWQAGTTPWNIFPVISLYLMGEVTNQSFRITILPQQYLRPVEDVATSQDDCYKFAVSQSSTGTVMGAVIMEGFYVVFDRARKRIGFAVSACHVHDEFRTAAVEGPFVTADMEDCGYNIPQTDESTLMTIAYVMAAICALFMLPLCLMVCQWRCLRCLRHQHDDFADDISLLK
Chain of BACE (the beta-secretase enzyme) (P56818 46-501): as above
Chain of native endogenous human BACE1 (P56817 46-501): as the sequence (P56818 46-501) above, with S6P, I162V, I165L, T180S, A182V, V340I, A393L, H443Q counted along it
Chain of human BACE1(1-460):Fc (P56817 22-460): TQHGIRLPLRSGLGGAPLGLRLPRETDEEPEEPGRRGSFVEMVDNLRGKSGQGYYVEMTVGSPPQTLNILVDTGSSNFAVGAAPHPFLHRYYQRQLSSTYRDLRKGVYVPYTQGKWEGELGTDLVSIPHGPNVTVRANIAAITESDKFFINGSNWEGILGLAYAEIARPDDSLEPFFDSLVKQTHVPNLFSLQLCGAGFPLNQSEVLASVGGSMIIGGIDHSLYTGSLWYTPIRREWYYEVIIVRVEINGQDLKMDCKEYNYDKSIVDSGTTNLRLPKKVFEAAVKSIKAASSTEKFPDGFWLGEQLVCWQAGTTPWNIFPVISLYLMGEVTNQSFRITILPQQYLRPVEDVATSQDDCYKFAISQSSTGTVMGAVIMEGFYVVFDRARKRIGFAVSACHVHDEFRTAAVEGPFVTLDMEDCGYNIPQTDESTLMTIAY

| Structure (SMILES) | IC50 [1, 5] | IC50 [1, 6] | Abeta 1-x peptide levels reduced in brain cortex ([2]; 10 mg/kg oral dose) | Abeta 1-x peptide levels reduced in brain hippocampus ([2]; 10 mg/kg oral dose) | Abeta 1-x peptide levels reduced in brain cortex ([2]; 30 mg/kg oral dose) | Abeta 1-x peptide levels reduced in brain hippocampus ([2]; 30 mg/kg oral dose) | IC50 [3] | IC50 ([4]; Abeta 1-40, read-out: HEK 293 Swe A-beta (1-40) ELISA IC50) | IC50 ([4]; Abeta 1-42, read-out: HEK 293 Swe A-beta (1-42) ELISA IC50) |
| --- | --- | --- | --- | --- | --- | --- | --- | --- | --- |
| CC(C)(O)c1nc(N2C[C@H]3CSC(N)=N[C@@]3(c3cnccn3)C2)ncc1F.Cl [Example 8, 2-[2-[(4aR,7aR)-2-Amino-7a-pyrazin-2-yl-4,4a,5,7-tetrahydropyrrolo[3,4-d][1,3]thiazin-6-yl]-5-fluoro-pyrimidin-4-yl]propan-2-ol hydrochloride] | 455 nM | 412 nM | approximately 23% | approximately 19% | ~53% | ~46% | 105 nM | 242 nM | 395 nM |
| CC(C)(O)c1nc(N2C[C@H]3CSC(N)=N[C@@]3(c3ccc(F)cn3)C2)ncc1F [Example 12, 2-[2-[(4aR,7aR)-2-Amino-7a-(5-fluoro-2-pyridyl)-4,4a,5,7-tetrahydropyrrolo[3,4-d][1,3]thiazin-6-yl]-5-fluoro-pyrimidin-4-yl]propan-2-ol hydrochloride] | 109 nM | 83.1 nM | – | – | – | – | – | – | – |
| CC(C)(O)c1nc(N2C[C@H]3CSC(N)=N[C@@]3(c3cccnc3)C2)ncc1F [Example 15, 2-[2-[(4aR,7aS)-2-Amino-7a-(3-pyridyl)-4,4a,5,7-tetrahydropyrrolo[3,4-d][1,3]thiazin-6-yl]-5-fluoro-pyrimidin-4-yl]propan-2-ol hydrochloride] | 98.2 nM | 80.1 nM | – | – | – | – | 93.5 nM | – | – |
